EP0414894A1 (priority 1989, dated 1990)
“And” between values parts separate entries of the source, which are not always exact repeats. Equal values may be shown once. Read-outs that look alike come from different tables or passages of the source.

How the values were obtained:
domestic flies [1] = experiment: insecticidal activity, laboratory test in gauze boxes; format: in vivo; settings: 2% solution in 5% aqueous glucose; observed in 48-72 hours
Method: The compound obtained was used for preparing an insecticidal composition which was a 2% solution of the compound in a 5% aqueous solution of glucose. The test for activity of the insecticidal composition of the invention was conducted on domestic flies. Into gause 10x10 cm boxes /6 boxes/ 6-7-day flies were placed in the number of 50 individuals per box, which were of both sexes. The Petri dishes containing the insecticidal composition of the invention were put into 5 boxes. The observations for fly death were carried out in 48-72 hours. The Petri dish containing a 5% aqueous glucose solution were placed into a control box.

domestic flies [2] = experiment: insecticidal activity, full-scale (large-scale) test in premises; format: in vivo; settings: 2% solution, 2-3 dishes per 20 m²; 72 hours
Method: The full-scale tests for activity of the insecticidal composition of the invention to domestic flies in habitable and industrial premises were carried out as follows. The Petri dishes containing a 2% solution of the insecticidal composition of the invention were located according 2-3-dishes per 20 m². The composition activity was evaluated by a direct estimation of killed insects in 72 hours or by using an adhesive tape to count the number of flies on its surface prior to and after conducting the test.

Hepatitis B virus = experiment: virulicidal activity, HBsAg titer in blood serum
Description: table ratio instead of the test composition.

Meningopneumonia virus = tested on: Meningopneumonia virus; parameters: species or system meningopneumonia pathogene/MP strain/
Influenza A viruses = experiment: virulicidal activity, virus titer in allantoic fluid by hemagglutination-inhibition
pig ascarid eggs = experiment: microbe, parasite or virus in culture
Staphylococcus aureus = experiment: microbe, parasite or virus in culture; format: cell-based; settings: for killing at 0.2 %: read-out: Death of micro-organisms, % S.aureus
Escherichia coli = experiment: microbe, parasite or virus in culture; format: cell-based; settings: for killing at 0.2 %: read-out: Death of micro-organisms, % E.coli
[3] = 24 h, read-out: Death of ascaridal eggs, % after 24 hours
[4] = 48 h, read-out: Death of ascaridal eggs, % after 48 hours
[5] = concentration 1.0 % by mass, 30 min
[6] = concentration 1.0 % by mass, 60 min
[7] = concentration 2.0 % by mass, 30 min
[8] = concentration 2.0 % by mass, 60 min

CC(C)OP(=NC(CO)C(O)c1ccc([N+](=O)[O-])cc1)(OC(C)C)OC(C)C (stereo not drawn) [Example 3, triisopropoxyphosphazo-1-para-nitrophenyl-1,3-propandiol]
Death of flies, % Tests in laboratory (domestic flies [1]): 82.0%
Death of flies, % Tests in large-scale (domestic flies [2]): 80.0%

O=[N+]([O-])c1ccc(C(O)C(CO)N=P(OC(CCl)c2ccccc2)(OC(CCl)c2ccccc2)OC(CCl)c2ccccc2)cc1 (stereo not drawn) [Example 4, tris/2-chloro-1-phenylethoxy/phosphazo-1-para-nitrophenyl-1,3-propandiol]
Death of flies, % Tests in laboratory (domestic flies [1]): 73.4%
Death of flies, % Tests in large-scale (domestic flies [2]): 75.0%

CC(C)OP(=NC(CCl)C(O)c1ccc([N+](=O)[O-])cc1)(OC(C)C)OC(C)C (stereo not drawn) [Example 6, tri-isopropoxyphosphazo-1-para-nitrophenyl-1-chloro-3-propanol]
Virulicidal activity (%) under exposure 30 min (Hepatitis B virus; concentration 1.0 % by mass): 100.0%
Virulicidal activity (%) under exposure 60 min (Hepatitis B virus; concentration 1.0 % by mass): 100.0%
Virulicidal activity (%) under exposure 30 min (Hepatitis B virus; concentration 2.0 % by mass): 100,0%
Virulicidal activity (%) under exposure 60 min (Hepatitis B virus; concentration 2.0 % by mass): 100,0%
Virulicidal activity (%) under exposure 30 min (Meningopneumonia virus): 99.0% and 100.0%
Virulicidal activity (%) under exposure 60 min (Meningopneumonia virus): 100.0%
Virulicidal activity (%) under exposure 30 min (Influenza A viruses; concentration 1.0 % by mass): 75.0%
Virulicidal activity (%) under exposure 60 min (Influenza A viruses; concentration 1.0 % by mass): 98.0%
Virulicidal activity (%) under exposure 30 min (Influenza A viruses; concentration 2.0 % by mass): 93.8%
Virulicidal activity (%) under exposure 60 min (Influenza A viruses; concentration 2.0 % by mass): 100.0%
Death of flies, % Tests in laboratory (domestic flies [1]): 90.9%
Death of flies, % Tests in large-scale (domestic flies [2]): 89.0%

CCCCOP(=NC(CCl)C(O)c1ccc([N+](=O)[O-])cc1)(OCCCC)OCCCC (stereo not drawn) [Example 7, tri-n-butoxyphosphazo-1-paranitrophenyl-1-chloro-3-propanol]
Death of flies, % Tests in laboratory (domestic flies [1]): 96.0%
Death of flies, % Tests in large-scale (domestic flies [2]): 96.8%

O=[N+]([O-])c1ccc(C(O)C(CCl)N=P(OC(CCl)c2ccccc2)(OC(CCl)c2ccccc2)OC(CCl)c2ccccc2)cc1 (stereo not drawn) [Example 8, tris/2-chlorol-phenylethoxy/-phosphazo-1-paranitrophenyl-1-chloro-3-propanol]
Death of flies, % Tests in laboratory (domestic flies [1]): 84.3%
Death of flies, % Tests in large-scale (domestic flies [2]): 84.0%

CCCOP(=NC(CCl)C(Cl)c1ccc([N+](=O)[O-])cc1)(OCCC)OCCC (stereo not drawn) [Example 11, tri-n-propoxyphosphazo-1-para-nitrophenyl-1,3-dichloropropane]
Death of flies, % Tests in laboratory (domestic flies [1]): 89.0%
Death of flies, % Tests in large-scale (domestic flies [2]): 89.0%

CC(C)OP(=NC(CCl)C(Cl)c1ccc([N+](=O)[O-])cc1)(OC(C)C)OC(C)C (stereo not drawn) [Example 12, triisopropoxyphosphazo-1-paranitrophenyl]
Death of flies, % Tests in laboratory (domestic flies [1]): 92.0%
Death of flies, % Tests in large-scale (domestic flies [2]): 90.0%

CCCCOP(=NC(CCl)C(Cl)c1ccc([N+](=O)[O-])cc1)(OCCCC)OCCCC (stereo not drawn) [Example 13, tri-n-butoxyphosphazo-1-para-nitrophenyl-1,3-dichloropropane]
Virulicidal activity (%) under exposure 30 min (Hepatitis B virus; concentration 1.0 % by mass): 75.0%
Virulicidal activity (%) under exposure 60 min (Hepatitis B virus; concentration 1.0 % by mass): 100.0%
Virulicidal activity (%) under exposure 30 min (Hepatitis B virus; concentration 2.0 % by mass): 100,0%
Virulicidal activity (%) under exposure 60 min (Hepatitis B virus; concentration 2.0 % by mass): 100,0%
Virulicidal activity (%) under exposure 30 min (Meningopneumonia virus): 75.0% and 99.0%
Virulicidal activity (%) under exposure 60 min (Meningopneumonia virus): 100.0%
Virulicidal activity (%) under exposure 30 min (Influenza A viruses; concentration 1.0 % by mass): 50.0%
Virulicidal activity (%) under exposure 60 min (Influenza A viruses; concentration 1.0 % by mass): 75.0%
Virulicidal activity (%) under exposure 30 min (Influenza A viruses; concentration 2.0 % by mass): 93.8%
Virulicidal activity (%) under exposure 60 min (Influenza A viruses; concentration 2.0 % by mass): 100.0%
Death of flies, % Tests in laboratory (domestic flies [1]): 92.0%
Death of flies, % Tests in large-scale (domestic flies [2]): 91.0%

O=[N+]([O-])c1ccc(C(Cl)C(CCl)N=P(OC(CCl)c2ccccc2)(OC(CCl)c2ccccc2)OC(CCl)c2ccccc2)cc1 (stereo not drawn) [Example 14, tris-/2-chloro-1-phenoxy/phosphazo-1-para-nitrophenyl-1,3-dichloropropane]
Virulicidal activity (%) under exposure 30 min (Hepatitis B virus; concentration 1.0 % by mass): 100.0%
Virulicidal activity (%) under exposure 60 min (Hepatitis B virus; concentration 1.0 % by mass): 100.0%
Virulicidal activity (%) under exposure 30 min (Hepatitis B virus; concentration 2.0 % by mass): 100,0%
Virulicidal activity (%) under exposure 60 min (Hepatitis B virus; concentration 2.0 % by mass): 100,0%
Virulicidal activity (%) under exposure 30 min (Meningopneumonia virus): 50.0% and 90.0%
Virulicidal activity (%) under exposure 60 min (Meningopneumonia virus): 75.0% and 100.0%
Virulicidal activity (%) under exposure 30 min (Influenza A viruses; concentration 1.0 % by mass): 75.0%
Virulicidal activity (%) under exposure 60 min (Influenza A viruses; concentration 1.0 % by mass): 93.8%
Virulicidal activity (%) under exposure 30 min (Influenza A viruses; concentration 2.0 % by mass): 93.8%
Virulicidal activity (%) under exposure 60 min (Influenza A viruses; concentration 2.0 % by mass): 100.0%
Death of flies, % Tests in laboratory (domestic flies [1]): 71.3%
Death of flies, % Tests in large-scale (domestic flies [2]): 70.0%

O=[N+]([O-])c1ccc(C(O)C(CO)N=P(Oc2ccccc2)(Oc2ccccc2)Oc2ccccc2)cc1 (stereo not drawn) [Example 21, triphenoxyphosphazo-1-para-nitrophenyl-1,3-propanol]
Virulicidal activity (%) under exposure 30 min (Hepatitis B virus; concentration 1.0 % by mass): 50.0%
Virulicidal activity (%) under exposure 60 min (Hepatitis B virus; concentration 1.0 % by mass): 87.5%
Virulicidal activity (%) under exposure 30 min (Hepatitis B virus; concentration 2.0 % by mass): 100,0%
Virulicidal activity (%) under exposure 60 min (Hepatitis B virus; concentration 2.0 % by mass): 100,0%
Virulicidal activity (%) under exposure 30 min (Influenza A viruses; concentration 1.0 % by mass): 87.5%
Virulicidal activity (%) under exposure 60 min (Influenza A viruses; concentration 1.0 % by mass): 100.0%

O=[N+]([O-])c1ccc(C(O)C(CO)N=P(Nc2ccccc2)(Nc2ccccc2)Nc2ccccc2)cc1 (stereo not drawn) [Example 29, trianilidophosphazo-1-para-nitrophenyl-1,3-propanediol]
killing at 2 % (pig ascarid eggs; [3]): 97.6%
killing at 2 % (pig ascarid eggs; [4]): 100%

O=[N+]([O-])c1ccc(C(O)C(CO)N=P(Cl)(Oc2ccccc2)Oc2ccccc2)cc1 (stereo not drawn) [Example 36, diphenoxychlorophosphazo-1-nitrophenyl-1,3-dihydroxypropyl]
Death of micro-organisms, % S.aureus (Staphylococcus aureus): 90.0%
Virulicidal activity (%) to poliomyelitis virus under exposure of 30 min (poliomyelitis virus): 50.0% and 90.0%
Virulicidal activity (%) to poliomyelitis virus under exposure of 60 min (poliomyelitis virus): 80.0% and 90.0%
Death of micro-organisms, % E.coli (Escherichia coli): 100.0%

O=[N+]([O-])c1ccc(C(O)C(CO)N=P(Cl)(Oc2ccc(Cl)cc2)Oc2ccc(Cl)cc2)cc1 (stereo not drawn) [Example 37, di-para-chlorophenoxychlorophosphazo-1-para-nitrophenyl-1,3-dihydroxyisopropyl]
Death of micro-organisms, % S.aureus (Staphylococcus aureus): 100.0%
Virulicidal activity (%) to poliomyelitis virus under exposure of 30 min (poliomyelitis virus): 60.0% and 90.0%
Virulicidal activity (%) to poliomyelitis virus under exposure of 60 min (poliomyelitis virus): 90.0% and 100.0%
Death of micro-organisms, % E.coli (Escherichia coli): 100.0%

O=[N+]([O-])c1ccc(C(O)C(CO)N=P(Cl)(Cl)Oc2ccc(Cl)cc2)cc1 (stereo not drawn) [Example 39, para-chlorophenoxydichlorophosphazo-1-para-nitrophenyl-1,3-dihydroxyisopropyl]
Death of micro-organisms, % S.aureus (Staphylococcus aureus): 100.0%
Virulicidal activity (%) to poliomyelitis virus under exposure of 30 min (poliomyelitis virus): 70.0% and 95.0%
Virulicidal activity (%) to poliomyelitis virus under exposure of 60 min (poliomyelitis virus): 90.0% and 100.0%
Death of micro-organisms, % E.coli (Escherichia coli): 100.0%

Cc1ccc(OP(=NC(CO)C(O)c2ccc([N+](=O)[O-])cc2)(Oc2ccc(C)cc2)Oc2ccc(C)cc2)cc1 (stereo not drawn) [Example 40, tri-para-methylphenoxy-1-para-nitrophenyl-1,3-dihydroxyisopropyl]
killing at 0.2 % (Staphylococcus aureus; Staphylococcus aureus): 70%
Virulicidal activity (%) to poliomyelitis virus under exposure of 30 min (poliomyelitis virus; [5]): 50.0%
Virulicidal activity (%) to poliomyelitis virus under exposure of 60 min (poliomyelitis virus; [6]): 70.0%
Virulicidal activity (%) to poliomyelitis virus under exposure of 30 min (poliomyelitis virus; [7]): 80.0%
Virulicidal activity (%) to poliomyelitis virus under exposure of 60 min (poliomyelitis virus; [8]): 90.0%
killing at 0.2 % (Escherichia coli; Escherichia coli): 90%

O=[N+]([O-])c1ccc(C(O)C(CO)N=P(Oc2ccc(Cl)cc2)(Oc2ccc(Cl)cc2)Oc2ccc(Cl)cc2)cc1 (stereo not drawn) [Example 41, tri-para-chlorophenoxyphosphazo-1-para-nitrophenyl-1,3-dihydroxyisopropyl]
killing at 0.2 % (Staphylococcus aureus; Staphylococcus aureus): 90%
Virulicidal activity (%) to poliomyelitis virus under exposure of 30 min (poliomyelitis virus; [5]): 50.0%
Virulicidal activity (%) to poliomyelitis virus under exposure of 60 min (poliomyelitis virus; [6]): 80.0%
Virulicidal activity (%) to poliomyelitis virus under exposure of 30 min (poliomyelitis virus; [7]): 90.0%
Virulicidal activity (%) to poliomyelitis virus under exposure of 60 min (poliomyelitis virus; [8]): 100.0%
killing at 0.2 % (Escherichia coli; Escherichia coli): 100%

CNC(=S)S [carbathione, dihydrate, reference compound]
killing at 2 % (pig ascarid eggs; [3]): 60%
killing at 2 % (pig ascarid eggs; [4]): 80%

O=S(=O)(NCl)c1ccccc1 [sodium N-chlorobenzenesulfamide, reference compound]
Virulicidal activity (%) under exposure 30 min (Hepatitis B virus; concentration 1.0 % by mass): 9.0%
Virulicidal activity (%) under exposure 60 min (Hepatitis B virus; concentration 1.0 % by mass): 25.0%
Virulicidal activity (%) under exposure 30 min (Hepatitis B virus; concentration 2.0 % by mass): 12.5%
Virulicidal activity (%) under exposure 60 min (Hepatitis B virus; concentration 2.0 % by mass): 50.0%
Virulicidal activity (%) under exposure 60 min (Meningopneumonia virus): 25.0% and 50.0%
Virulicidal activity (%) under exposure 30 min (Influenza A viruses; concentration 1.0 % by mass): 12.5% and 22.0%
Virulicidal activity (%) under exposure 60 min (Influenza A viruses; concentration 1.0 % by mass): 25.0%
Virulicidal activity (%) under exposure 30 min (Influenza A viruses; concentration 2.0 % by mass): 25.0% and 25.1%
Virulicidal activity (%) under exposure 60 min (Influenza A viruses; concentration 2.0 % by mass): 50.0%
killing at 0.2 % (Staphylococcus aureus; Staphylococcus aureus): 90%
killing at 0.5 % (Staphylococcus aureus; Staphylococcus aureus, read-out: Death of micro-organisms, % Staphylo-cocus aureus): 100%
Virulicidal activity (%) to poliomyelitis virus under exposure of 30 min (poliomyelitis virus; [5]): 9.0%
Virulicidal activity (%) to poliomyelitis virus under exposure of 60 min (poliomyelitis virus; [6]): 25.0%
Virulicidal activity (%) to poliomyelitis virus under exposure of 30 min (poliomyelitis virus; [7]): 12.5%
Virulicidal activity (%) to poliomyelitis virus under exposure of 60 min (poliomyelitis virus; [8]): 50.0%
killing at 0.2 % (Escherichia coli; Escherichia coli): 100%
killing at 0.5 % (Escherichia coli; Escherichia coli, read-out: Death of micro-organisms, % Escherichia coli): 100%
